Source: patent US10407431B2, “Compounds and compositions as toll-like receptor 7 agonists” (NOVARTIS AG, priority 2014, dated 2019)

Biological target: human TLR7 (Homo sapiens (Human), UniProt Q9NYK1)
Experiment: Reporter Gene Assay (HEK293 stably transfected with human TLR7 and NF-kB-driven luciferase reporter)
Format: cell-based
Settings: HEK293 cells stably transfected with human TLR7 and pNifty-Luciferase; 7 hours incubation; EC50 relative to the activity of resiquimod set to 100%
Description: As a control assay, normal Hek293 transfected with pNifty-Luc were used. […] Bright-Glo™ Luciferase assay buffer and substrate were supplied by Promega #E263B and #E264B (assay substrate and buffer respectively). 384 well clear-bottom plates were supplied by Greiner bio-one (#789163-G) and were custom bar-coded plates.
Cells were plated at 25,000 cells/well in 384-well plates in a final volume of 50 μl of media. Cells were allowed to adhere to the plates after overnight (18 hours) culture at 37° C. and 5% CO2. Serially diluted experimental and positive control compounds were then dispensed to each well and incubated for 7 hours at 37° C. and 5% CO2. Cells stimulated with DMSO alone also serve as negative controls. After the incubation, 30 μl of the pre-mix assay buffer and substrate buffer were added to each well according to manufacturer's instructions. The luminescence signal was read on a CLIPR machine with an integration time of 20 seconds per plate.

Chain of human TLR7 (Q9NYK1 27-1049): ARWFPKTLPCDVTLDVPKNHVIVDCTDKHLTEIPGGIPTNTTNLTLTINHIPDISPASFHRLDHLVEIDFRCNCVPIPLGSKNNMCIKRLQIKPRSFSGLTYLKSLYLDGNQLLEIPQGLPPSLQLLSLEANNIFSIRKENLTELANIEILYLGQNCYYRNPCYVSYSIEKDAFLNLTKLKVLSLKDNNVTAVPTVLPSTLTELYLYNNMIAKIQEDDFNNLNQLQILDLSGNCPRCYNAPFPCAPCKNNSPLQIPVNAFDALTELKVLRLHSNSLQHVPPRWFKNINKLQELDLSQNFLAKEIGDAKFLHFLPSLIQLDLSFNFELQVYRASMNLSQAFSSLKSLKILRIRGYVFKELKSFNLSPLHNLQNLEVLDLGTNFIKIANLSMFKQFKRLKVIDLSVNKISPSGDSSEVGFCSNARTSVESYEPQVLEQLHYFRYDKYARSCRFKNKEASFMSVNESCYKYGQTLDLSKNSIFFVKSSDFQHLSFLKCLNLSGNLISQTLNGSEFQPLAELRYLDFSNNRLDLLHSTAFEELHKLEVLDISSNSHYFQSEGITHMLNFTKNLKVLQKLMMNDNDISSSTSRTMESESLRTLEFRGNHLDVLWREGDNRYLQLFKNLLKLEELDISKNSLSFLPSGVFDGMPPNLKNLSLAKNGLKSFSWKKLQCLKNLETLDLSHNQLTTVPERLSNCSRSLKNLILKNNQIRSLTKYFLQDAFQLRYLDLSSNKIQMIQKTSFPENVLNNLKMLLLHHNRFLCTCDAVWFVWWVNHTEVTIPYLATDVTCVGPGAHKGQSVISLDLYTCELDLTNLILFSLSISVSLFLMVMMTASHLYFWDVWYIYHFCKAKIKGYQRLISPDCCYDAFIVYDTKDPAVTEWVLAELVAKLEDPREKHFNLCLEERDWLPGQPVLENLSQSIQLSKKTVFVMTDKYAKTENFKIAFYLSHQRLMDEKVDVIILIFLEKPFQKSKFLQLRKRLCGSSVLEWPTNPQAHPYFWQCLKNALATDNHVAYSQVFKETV

Work on `CCCCCNc1nc(N)nc2ccn(Cc3ccc(C(=O)OC)cc3OC)c12` [Example 1, methyl 4-((2-amino-4-(pentylamino)-5H-pyrrolo[3,2-d]pyrimidin-5-yl)methyl)-3-methoxybenzoate] yielded an EC50 of 0.01 µM.

In the case of `CCCCCNc1nc(N)nc2ccn(Cc3ccc(C(=O)OCCN(C)C)cc3OC)c12` [Example 2, 2-(dimethylamino)ethyl 4-((2-amino-4-(pentylamino)-5H-pyrrolo[3,2-d]pyrimidin-5-yl)methyl)-3-methoxybenzoate], the EC50 is reported as < 0.005 µM.

Compound `CCCCCNc1nc(N)nc2ccn(Cc3ccc(C(=O)OCCOCCN(C)C)cc3OC)c12` [Example 3, 2-(2-(dimethylamino)ethoxy)ethyl 4-((2-amino-4-(pentylamino)-5H-pyrrolo[3,2-d]pyrimidin-5-yl)methyl)-3-methoxybenzoate] has an EC50 of 0.02 µM.

`CCCCCNc1nc(N)nc2ccn(Cc3cc(C(=O)OC)ccc3OC)c12` [Example 4, methyl 3-((2-amino-4-(pentylamino)-5H-pyrrolo[3,2-d]pyrimidin-5-yl)methyl)-4-methoxybenzoate] was tested, and the EC50 was < 0.005 µM.

`CCCCCNc1nc(N)nc2ccn(Cc3cc(CC(=O)OC)ccc3OC)c12` [Example 5, methyl 2-(3-((2-amino-4-(pentylamino)-5H-pyrrolo[3,2-d]pyrimidin-5-yl)methyl)-4-methoxyphenyl)acetate] showed an EC50 of 0.01 µM.

For `CCCCCNc1nc(N)nc2ccn(Cc3cc(CCC(=O)OCC)ccc3OC)c12` [Example 6, ethyl 3-(3-((2-amino-4-(pentylamino)-5H-pyrrolo[3,2-d]pyrimidin-5-yl)methyl)-4-methoxyphenyl)propanoate], the EC50 was 0.03 µM.

Work on `CCCCCNc1nc(N)nc2ccn(Cc3cc(OCC(=O)OCC(=O)N4CCOCC4)ccc3OC)c12` [Example 8, 2-morpholino-2-oxoethyl 2-(3-((2-amino-4-(pentylamino)-5H-pyrrolo[3,2-d]pyrimidin-5-yl)methyl)-4-methoxyphenoxy)acetate] yielded an EC50 of 0.04 µM.

`CCCCCNc1nc(N)nc2ccn(Cc3cc(CC(=O)OCC(=O)N4CCOCC4)ccc3OC)c12` [Example 9, 2-morpholino-2-oxoethyl 2-(3-((2-amino-4-(pentylamino)-5H-pyrrolo[3,2-d]pyrimidin-5-yl)methyl)-4-methoxyphenyl)acetate] was tested, and the EC50 was 0.01 µM.

`CCCCCNc1nc(N)nc2ccn(Cc3ccc(CC(=O)OCC(=O)N4CCOCC4)cc3OC)c12` [Example 10, 2-morpholino-2-oxoethyl 2-(4-((2-amino-4-(pentylamino)-5H-pyrrolo[3,2-d]pyrimidin-5-yl)methyl)-3-methoxyphenyl)acetate] showed an EC50 of 0.006 µM.

In the case of `CCCCCNc1nc(N)nc2ccn(Cc3ccc(CCC(=O)OCC(=O)N4CCOCC4)cc3OC)c12` [Example 11, 2-(morpholin-4-yl)-2-oxoethyl 3-(4-{[2-amino-4-(pentylamino)-5H-pyrrolo[3,2-d]pyrimidin-5-yl]methyl}-3-methoxyphenyl)propanoate], the EC50 is reported as 0.02 µM.

For `CCCC[C@@H](CO)Nc1nc(N)nc2ccn(Cc3cc(CCC(=O)OCC(=O)N4CCOCC4)ccc3OC)c12` [Example 12, (S)-2-morpholino-2-oxoethyl 3-(3-((2-amino-4-((1-hydroxyhexan-2-yl)amino)-5H-pyrrolo[3,2-d]pyrimidin-5-yl)methyl)-4-methoxyphenyl)propanoate], the EC50 was 0.03 µM.

`CCCC[C@@H](CO)Nc1nc(N)nc2ccn(Cc3ccc(CC(=O)OCC(=O)N4CCOCC4)cc3OC)c12` [Example 13, (S)-2-morpholino-2-oxoethyl 2-(4-((2-amino-4-((1-hydroxyhexan-2-yl)amino)-5H-pyrrolo[3,2-d]pyrimidin-5-yl)methyl)-3-methoxyphenyl)acetate] was tested, and the EC50 was 0.01 µM.

`CCCC[C@@H](CO)Nc1nc(N)nc2ccn(Cc3cc(CC(=O)OCC(=O)N4CCOCC4)ccc3OC)c12` [Example 14, (S)-2-morpholino-2-oxoethyl 2-(3-((2-amino-4-((1-hydroxyhexan-2-yl)amino)-5H-pyrrolo[3,2-d]pyrimidin-5-yl)methyl)-4-methoxyphenyl)acetate] showed an EC50 of 0.01 µM.

Work on `CCCC[C@@H](CO)Nc1nc(N)nc2ccn(Cc3ccc(CCC(=O)OCC(=O)N4CCOCC4)cc3OC)c12` [Example 15, (S)-2-morpholino-2-oxoethyl 3-(4-((2-amino-4-((1-hydroxyhexan-2-yl)amino)-5H-pyrrolo[3,2-d]pyrimidin-5-yl)methyl)-3-methoxyphenyl)propanoate] yielded an EC50 of 0.02 µM.

With `CCCCCNc1nc(N)nc2ccn(Cc3cc(/C=C/C(=O)OCC(=O)N4CCOCC4)ccc3OC)c12` [Example 16, 2-(morpholin-4-yl)-2-oxoethyl (2E)-3-(3-{[2-amino-4-(pentylamino)-5H-pyrrolo[3,2-d]pyrimidin-5-yl]methyl}-4-methoxyphenyl)prop-2-enoate] the EC50 was < 0.005 µM.

Compound `CCCCCNc1nc(N)nc2ccn(Cc3cc(CCC(=O)OCC(=O)N4CCOCC4)ccc3OC)c12` [Example 17, 2-(morpholin-4-yl)-2-oxoethyl 3-(3-{[2-amino-4-(pentylamino)-5H-pyrrolo[3,2-d]pyrimidin-5-yl]methyl}-4-methoxyphenyl)propanoate] has an EC50 of 0.05 µM.

With `CCCCCNc1nc(N)nc2ccn(Cc3ccc(CC(=O)OCC(=O)OCc4ccccc4)cc3OC)c12` [Example 18, 2-(benzyloxy)-2-oxoethyl 2-(4-{[2-amino-4-(pentylamino)-5H-pyrrolo[3,2-d]pyrimidin-5-yl]methyl}-3-methoxyphenyl)acetate] the EC50 was 0.2 µM.

Work on `CCCCCNc1nc(N)nc2ccn(Cc3ccc(CC(=O)OCC(=O)N(CCC)CCC)cc3OC)c12` [Example 19, 2-(dipropylcarbamoyl)methyl 2-(4-{[2-amino-4-(pentylamino)-5H-pyrrolo[3,2-d]pyrimidin-5-yl]methyl}-3-methoxyphenyl)acetate] yielded an EC50 of 0.2 µM.

`CCCCCNc1nc(N)nc2ccn(Cc3ccc(CC(=O)OCC(=O)N(C)C)cc3OC)c12` [Example 20, 2-(dimethylamino)-2-oxoethyl 2-(4-((2-amino-4-(pentylamino)-5H-pyrrolo[3,2-d]pyrimidin-5-yl)methyl)-3-methoxyphenyl)acetate] showed an EC50 of 0.08 µM.

In the case of `CCCCCNc1nc(N)nc2ccn(Cc3ccc(CC(=O)OCCN4CCN(C)CC4)cc3OC)c12` [Example 21, 2-(4-methylpiperazin-1-yl)ethyl 2-(4-{[2-amino-4-(pentylamino)-5H-pyrrolo[3,2-d]pyrimidin-5-yl]methyl}-3-methoxyphenyl)acetate], the EC50 is reported as < 0.005 µM.

In the case of `CCCCCNc1nc(N)nc2ccn(Cc3ccc(CC(=O)OCCO)cc3OC)c12` [Example 22, 2-hydroxyethyl 2-(4-{[2-amino-4-(pentylamino)-5H-pyrrolo[3,2-d]pyrimidin-5-yl]methyl}-3-methoxyphenyl)acetate], the EC50 is reported as < 0.006 µM.

Work on `CCCCCNc1nc(N)nc2ccn(Cc3ccc(CC(=O)OCCCCN(C)C)cc3OC)c12` [Example 23, 4-(dimethylamino)butyl 2-(4-{[2-amino-4-(pentylamino)-5H-pyrrolo[3,2-d]pyrimidin-5-yl]methyl}-3-methoxyphenyl)acetate] yielded an EC50 of 0.007 µM.

For `CCCCCNc1nc(N)nc2ccn(Cc3ccc(CC(=O)OCCN4CCOCC4)cc3OC)c12` [Example 24, 2-(morpholin-4-yl)ethyl 2-(4-{[2-amino-4-(pentylamino)-5H-pyrrolo[3,2-d]pyrimidin-5-yl]methyl}-3-methoxyphenyl)acetate], the EC50 was 0.008 µM.

With `CCCCCNc1nc(N)nc2ccn(Cc3ccc(CC(=O)OCCN4CCNCC4)cc3OC)c12` [Example 25, 2-(piperazin-1-yl)ethyl 2-(4-{[2-amino-4-(pentylamino)-5H-pyrrolo[3,2-d]pyrimidin-5-yl]methyl}-3-methoxyphenyl)acetate] the EC50 was 0.03 µM.

Compound `CCCCCNc1nc(N)nc2ccn(Cc3cc(OCC(=O)OCCN(C)C)ccc3OC)c12` [Example 26, 2-(dimethylamino)ethyl 2-(3-{[2-amino-4-(pentylamino)-5H-pyrrolo[3,2-d]pyrimidin-5-yl]methyl}-4-methoxyphenoxy)acetate] has an EC50 of 0.3 µM.

For `CCCCCNc1nc(N)nc2ccn(Cc3cc(OCC(=O)OCCN4CCNCC4)ccc3OC)c12` [Example 27, 2-(piperazin-1-yl)ethyl 2-(3-{[2-amino-4-(pentylamino)-5H-pyrrolo[3,2-d]pyrimidin-5-yl]methyl}-4-methoxyphenoxy)acetate], the EC50 was 0.5 µM.

Compound `CCCCCNc1nc(N)nc2ccn(Cc3cc(OCC(=O)OCCN4CCOCC4)ccc3OC)c12` [Example 28, 2-(morpholin-4-yl)ethyl 2-(3-{[2-amino-4-(pentylamino)-5H-pyrrolo[3,2-d]pyrimidin-5-yl]methyl}-4-methoxyphenoxy)acetate] has an EC50 of 0.4 µM.

With `CCCCCNc1nc(N)nc2ccn(Cc3cc(OCC(=O)OCCN4CCN(C)CC4)ccc3OC)c12` [Example 29, 2-(4-methylpiperazin-1-yl)ethyl 2-(3-{[2-amino-4-(pentylamino)-5H-pyrrolo[3,2-d]pyrimidin-5-yl]methyl}-4-methoxyphenoxy)acetate] the EC50 was 0.2 µM.

`CCCC[C@@H](CO)Nc1nc(N)nc2ccn(Cc3cc(CN4CCNCC4)ccc3OC)c12` [Example 30, (S)-2-((2-amino-5-(2-methoxy-5-(piperazin-1-ylmethyl)benzyl)-5H-pyrrolo[3,2-d]pyrimidin-4-yl)amino)hexan-1-ol] showed an EC50 of 0.08 µM.

With `CCCCCNc1nc(N)nc2ccn(Cc3cc(CN4CCNCC4)ccc3OC)c12` [Example 31, 5-(2-methoxy-5-(piperazin-1-ylmethyl)benzyl)-N4-pentyl-5H-pyrrolo[3,2-d]pyrimidine-2,4-diamine] the EC50 was 0.02 µM.

For `CCCCCNc1nc(N)nc2ccn(Cc3ccc(CN4CCNCC4)cc3OC)c12` [Example 32, 5-(2-methoxy-4-(piperazin-1-ylmethyl)benzyl)-N4-pentyl-5H-pyrrolo[3,2-d]pyrimidine-2,4-diamine], the EC50 was < 0.005 µM.
